For one test, the target named is T1, PotF/D–E39D–F88A (Escherichia coli, UniProt P31133, A182D/D247S/F276W/F88A/L348Q/S38T/S87Y).
T1 construct: without the N-terminal signal peptide; made in house; host or cells: E. coli BL21 (DE3)
T1 sequence (P31133 27-370 S38T/S87Y/F88A/A182D/D247S/F276W/L348Q): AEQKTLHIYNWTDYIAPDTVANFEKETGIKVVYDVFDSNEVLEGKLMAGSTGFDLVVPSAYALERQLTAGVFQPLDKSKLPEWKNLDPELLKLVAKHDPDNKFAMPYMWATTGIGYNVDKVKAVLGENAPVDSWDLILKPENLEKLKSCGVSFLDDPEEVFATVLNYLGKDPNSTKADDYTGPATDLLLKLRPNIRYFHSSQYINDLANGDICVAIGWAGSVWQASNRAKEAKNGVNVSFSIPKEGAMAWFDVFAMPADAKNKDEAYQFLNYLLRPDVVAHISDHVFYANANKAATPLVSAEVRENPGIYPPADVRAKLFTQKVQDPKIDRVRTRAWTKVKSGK
As to the kind of experiment: ITC, PotF/D–E39D–F88A. It is filed as binding. The note with it: 293 K. As for the experimental part: (§1) Ligands were always freshly prepared in the exact same buffer as was used for the size exclusion run. Samples were degassed, and temperature was equilibrated using a degassing station (TA Instruments). About 400 μl protein sample of different concentrations (Table S5) depending on affinity was transferred into the sample cell of a nanoITC (TA Instruments), and 50 μl of about tenfold concentrated ligand solution was loaded into the injection needle. Multiple injection measurements were carried out at 293 K, 300 rpm stirring rate, and 250 s spacings between each 2 μl injection. The heat quantity past injection was determined by integration of the measured peaks. Every protein–ligand combination was measured as biological triplicate. Subtraction of heat of dilution measurements, peak integration, and one site binding fits were done with NanoAnalyze (TA Instruments). Reported errors are the errors between fits of the measured triplicates.
(In general: Isothermal titration calorimetry measures the heat released or taken up as one component is titrated into another.)

In the next test the target is T2, PotF/D–S247D (Escherichia coli, UniProt P31133, A182D/D39E/F276W/L348Q/S38T/S87Y).
T2 construct: without the N-terminal signal peptide; made in house; host or cells: E. coli BL21 (DE3)
T2 sequence (P31133 27-370 S38T/D39E/S87Y/A182D/F276W/L348Q): T1 sequence (P31133 27-370 S38T/S87Y/F88A/A182D/D247S/F276W/L348Q) with D13E, A62F, S221D
The test can be described thus: ITC, PotF/D–S247D. It is filed as binding. The note with it: 293 K. As for the experimental part:
as §1

A further test has as its system PotD. The settings on record: cited from earlier work.
The mark [1] stands for this setting: ITC, 50 mM Tris pH 8, 300 mM NaCl, biological triplicates.

The source of these data is article PMC8666671, “Fine-tuning spermidine binding modes in the putrescine binding protein PotF” (The Journal of Biological Chemistry, 2021).

Numbering of substitutions follows the chain as printed. “And” between values parts separate entries of the source, which are not always exact repeats. Equal values may be shown once.

What is called Kd is the equilibrium constant for the complex coming apart. Regarding `NCCCCNCCCN` [SPD, spermidine], the figures for the n on PotF/D–E39D–F88A (ITC binding stoichiometry) and on PotF/D–S247D (ITC binding stoichiometry) were 0.98 ± 0.03 and 0.94 ± 0.01, respectively. Moreover, the ΔG was -6.73 ± 0.03 kcal/mol at PotF/D–E39D–F88A (ITC), -6.77 ± 0.18 kcal/mol on PotF/D–S247D (ITC) and -11.13 ± 0.12 kcal/mol with PotD (ITC). In addition, the results for the ΔH on PotF/D–E39D–F88A (ITC), at PotF/D–S247D (ITC) and in the test with PotD (ITC) were -12.22 ± 0.35 kcal/mol, -6.76 ± 0.08 kcal/mol and -16.40 ± 1.4 kcal/mol, respectively. Further, the “−TΔS” value is 5.49 ± 0.36 kcal/mol at PotF/D–E39D–F88A (ITC), -0.01 ± 0.25 kcal/mol at PotF/D–S247D (ITC) and 5.24 ± 1.39 kcal/mol with PotD (ITC). Moreover, the Kd at PotF/D–E39D–F88A (setting [1]) was 9.6 ± 0.54 µM; at PotF/D–S247D (setting [1]), ~9.4 µM and 9.4 µM and 9.43 µM; on PotD, about 0.006 µM.
